Patent US20220175744A1, “COMBINATIONS OF TRANSCRIPTION INHIBITORS AND IMMUNE CHECKPOINT INHIBITORS FOR TREATMENT OF DISEASE” (Board of Regents, The University of Texas System, priority 2019, published 2022)

Columns and labels:
Type in all cases: cell-based
[1] = tested on: patient-derived and commercially-available PDAC cell lines; assay: proliferation assay in a panel of PDAC cell lines; conditions: range over all tested PDAC cell lines
[2] = tested on: patient-derived and commercially-available PDAC cell lines; assay: apoptosis induction assay in PDAC cell lines; conditions: all tested PDAC cell lines
[3] = target: T1, p-STAT3 (Homo sapiens, UniProt P40763); assay: inhibition of p-STAT3 by western blot and immunofluorescence in PDAC cell lines; conditions: all tested PDAC cell lines; western blot, immunofluorescence
T1 construct: endogenous in cells
Experimental: The chemical synthesis of WP1066 and WP1732 and their characterization was performed at U.T. MD Anderson Cancer Center. In vitro efficacy of both inhibitors was assessed using proliferation and apoptosis induction assays in a panel of patient-derived and commercially-available PDAC cell lines. Inhibition of p-STAT3 was investigated using western blot (WB) and immunofluorescence. […] Observed IC50 values ranged from 0.5 to 2 μM.

T1 sequence (P40763 whole entry): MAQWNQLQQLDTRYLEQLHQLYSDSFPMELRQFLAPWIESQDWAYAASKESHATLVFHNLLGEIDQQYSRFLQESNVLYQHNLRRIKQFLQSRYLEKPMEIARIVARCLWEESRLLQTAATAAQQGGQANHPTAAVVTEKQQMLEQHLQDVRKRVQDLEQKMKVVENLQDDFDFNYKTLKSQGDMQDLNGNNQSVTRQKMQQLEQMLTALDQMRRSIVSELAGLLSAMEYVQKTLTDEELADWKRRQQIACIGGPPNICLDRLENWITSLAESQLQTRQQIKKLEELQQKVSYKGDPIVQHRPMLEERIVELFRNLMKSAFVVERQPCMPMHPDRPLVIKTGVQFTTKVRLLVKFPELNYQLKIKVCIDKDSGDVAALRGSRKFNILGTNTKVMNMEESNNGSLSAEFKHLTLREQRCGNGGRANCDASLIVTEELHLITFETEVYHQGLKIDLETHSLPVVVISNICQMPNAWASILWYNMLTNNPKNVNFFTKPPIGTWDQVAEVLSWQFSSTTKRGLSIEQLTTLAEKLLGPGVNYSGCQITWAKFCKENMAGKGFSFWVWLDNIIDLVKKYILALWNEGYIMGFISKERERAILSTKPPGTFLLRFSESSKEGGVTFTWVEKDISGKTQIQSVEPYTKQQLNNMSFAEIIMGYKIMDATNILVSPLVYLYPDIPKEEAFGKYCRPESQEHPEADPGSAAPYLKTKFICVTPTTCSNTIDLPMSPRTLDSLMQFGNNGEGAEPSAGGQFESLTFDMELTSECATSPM

With `C[C@H](NC(=O)/C(C#N)=C/c1cccc(Br)n1)c1ccccc1` [WP1066] the IC50 [1] was 500 to 2000 nM, the apoptosis induction [2] was “induce apoptosis” and the “inhibition of p-STAT3 and its nuclear localization” value [3] was “inhibit p-STAT3 and its nuclear localization”.
